Converted amounts (≈) assume the structure as drawn.
Tests used:
Influenza/A/Wuhan [1] = experiment: Assay of direct inhibition of viral infection (influenza, MDCK cells, CPE); format: cell-based; settings: CPE of influenza virus on MDCK cells; read-out: IC50 direct antiviral activity
Protocol: Influenza at 10^3 TCID50 was added in 50 μl volumes to all wells and incubated at room temperature for 1 h. The mixture was inoculated onto MDCK cells on 96-well plates. Tamiflu (1.75 mg/ml) and Relenza (0.5 mg/ml) were used as a positive control for the assay.

[2] = test system: IκBα, NF-κB, p38, ERK, and JNK MAPK; experiment: IκBα, NF-κB and MAPK activation in macrophages; format: cell-based, mouse
[3] = test system: Francisella tularensis LVS; format: cell-based; settings: Ft LVS-infected macrophages
TBK1−/− MEFs = experiment: Quantitative real-time PCR in mouse embryonic fibroblasts; settings: 2 h
Influenza/A/Wuhan [4] = experiment: Assay of indirect inhibition of viral infection (influenza, MDCK cells, CPE); settings: CPE of influenza virus on MDCK cells
peritoneal macrophages = experiment: Quantitative real-time PCR of cytokine mRNA in murine peritoneal macrophages
[5] = IFN-β-deficient cells, DMXAA 3 h vs unstimulated wild-type cells

## Cc1ccc2c(=O)c3cccc(CC(=O)O)c3oc2c1C [DMXAA, 5,6-dimethylxanthenone-4-acetic acid]
Influenza/A/Wuhan [1]
  IC50: 5 µg/mL (≈ 17.7 µM)
[2]; C57BL/6 macrophages
  activation of p38, ERK, and JNK MAPK: no discernible effect
[2]; RAW 264.7 macrophage-like cell line
  NF-κB translocation / binding activity: little effect
[2]; primary macrophages
  level of IκBα protein: little effect
[3]
  time to reduce a bacterial burden compared with rIFN-β: took longer
[3]; 100 μg/ml, within 24 hr
  reduction of bacterial burden: 10 fold
IFN-β−/− macrophages
  CYP1A2 Fold Change: IFNβ−/−: 3.9 fold
  CYP1B1 Fold Change: IFNβ−/−: 5.9 fold
IFN-β−/− macrophages; [5]
  2310043N10RIK Fold Change: IFNβ−/−: 2.2 fold
  5830484A20RIK Fold Change: IFNβ−/−: 4.0 fold
  ABCB1 Fold Change: IFNβ−/−: 7.1 fold
  ABL1 Fold Change: IFNβ−/−: 1.5 fold
  ABLIM1 Fold Change: IFNβ−/−: 1.4 fold
  ACVR1B Fold Change: IFNβ−/−: 2.3 fold
  ADRB2 Fold Change: IFNβ−/−: 1.7 fold
  AFTIPHILIN Fold Change: IFNβ−/−: 1.2 fold
  AKAP12 Fold Change: IFNβ−/−: 1.5 fold
  AMPD3 Fold Change: IFNβ−/−: 2.7 fold
  AP2A2 Fold Change: IFNβ−/−: 8.8 fold
  APBB1IP Fold Change: IFNβ−/−: 1.8 fold
  APOBEC3F Fold Change: IFNβ−/−: 1.4 fold
  ARHGEF3 Fold Change: IFNβ−/−: 2.1 fold
  ARID3A Fold Change: IFNβ−/−: 2.5 fold
  ARL4C Fold Change: IFNβ−/−: 5.5 fold
  ASF1A Fold Change: IFNβ−/−: 2.1 fold
  ATRX Fold Change: IFNβ−/−: 2.6 fold
  B3GAT3 Fold Change: IFNβ−/−: 1.6 fold
  BACE1 Fold Change: IFNβ−/−: 3.7 fold
  BAMBI Fold Change: IFNβ−/−: 1.5 fold
  BCL2 Fold Change: IFNβ−/−: 1.4 fold
  BCL2L1 Fold Change: IFNβ−/−: 2.3 fold
  BHLHB2 Fold Change: IFNβ−/−: 1.3 fold
  BID Fold Change: IFNβ−/−: 2.9 fold
  C8ORF4 Fold Change: IFNβ−/−: 4.1 fold
  C9ORF26 Fold Change: IFNβ−/−: 4.4 fold
  CCL2 Fold Change: IFNβ−/−: 5.8 fold
  CCL3 Fold Change: IFNβ−/−: 1.4 fold
  CCL4 Fold Change: IFNβ−/−: 8.1 fold
  CCL5 Fold Change: IFNβ−/−: 3.7 fold
  CCL7 Fold Change: IFNβ−/−: 2.9 fold
  CCL13 Fold Change: IFNβ−/−: 5.8 fold
  CCND2 Fold Change: IFNβ−/−: 2.0 fold
  CCNE1 Fold Change: IFNβ−/−: 2.9 fold
  CCNF Fold Change: IFNβ−/−: 2.4 fold
  CCRN4L Fold Change: IFNβ−/−: 1.6 fold
  CD37 Fold Change: IFNβ−/−: 1.1 fold
  CD40 Fold Change: IFNβ−/−: 1.3 fold
  CD86 Fold Change: IFNβ−/−: 6.0 fold
  CD274 Fold Change: IFNβ−/−: 1.0 fold
  CDC6 Fold Change: IFNβ−/−: 3.2 fold
  CDC7 Fold Change: IFNβ−/−: 1.6 fold
  CDC37L1 Fold Change: IFNβ−/−: 2.2 fold
  CDKN1A Fold Change: IFNβ−/−: 1.1 fold
  CEBPB Fold Change: IFNβ−/−: 1.9 fold
  CITED2 Fold Change: IFNβ−/−: 1.5 fold
  CLCA1 Fold Change: IFNβ−/−: 1.9 fold
  CNR2 Fold Change: IFNβ−/−: 2.3 fold
  CREBBP Fold Change: IFNβ−/−: 6.3 fold
  CXCL10 Fold Change: IFNβ−/−: 21.2 fold
  DAXX Fold Change: IFNβ−/−: 1.6 fold
  DSCR1 Fold Change: IFNβ−/−: 2.7 fold
  FGD6 Fold Change: IFNβ−/−: 2.0 fold
  FGL2 Fold Change: IFNβ−/−: 3.6 fold
  GBP2 Fold Change: IFNβ−/−: 1.6 fold
  GBP4 Fold Change: IFNβ−/−: 4.6 fold
  GBP6 Fold Change: IFNβ−/−: 6.8 fold
  GYPC Fold Change: IFNβ−/−: 4.4 fold
  IFI16 Fold Change: IFNβ−/−: 2.7 fold
  IFI35 Fold Change: IFNβ−/−: 1.1 fold
  IFI203 Fold Change: IFNβ−/−: 3.4 fold
  IFI205 Fold Change: IFNβ−/−: 1.8 fold
  IFIH1 Fold Change: IFNβ−/−: 7.0 fold
  IFIT1 Fold Change: IFNβ−/−: 22.2 fold
  IFIT2 Fold Change: IFNβ−/−: 14.3 fold
  IFIT3 Fold Change: IFNβ−/−: 10.5 fold
  IFNA5 Fold Change: IFNβ−/−: 2.5 fold
  IFNA6 Fold Change: IFNβ−/−: 9.1 fold
  IFNB1 Fold Change: IFNβ−/−: 1.1 fold
  IFNG Fold Change: IFNβ−/−: 59.4 fold
  IGTP Fold Change: IFNβ−/−: 1.2 fold
  IIGP1 Fold Change: IFNβ−/−: 1.2 fold
  IL6 Fold Change: IFNβ−/−: 13.5 fold
  IL12B Fold Change: IFNβ−/−: 1.4 fold
  IL15 Fold Change: IFNβ−/−: 1.7 fold
  IL15RA Fold Change: IFNβ−/−: 3.3 fold
  IRF1 Fold Change: IFNβ−/−: 1.2 fold
  IRF2 Fold Change: IFNβ−/−: 1.2 fold
  IRGM Fold Change: IFNβ−/−: 2.3 fold
  ISG20 Fold Change: IFNβ−/−: 3.4 fold
  KATNA1 Fold Change: IFNβ−/−: 1.5 fold
  LGP2 Fold Change: IFNβ−/−: 2.7 fold
  LHX2 Fold Change: IFNβ−/−: 7.8 fold
  LOC129607 Fold Change: IFNβ−/−: 7.8 fold
  MAFK Fold Change: IFNβ−/−: 1.6 fold
  MARCH5 Fold Change: IFNβ−/−: 1.9 fold
  MOV10 Fold Change: IFNβ−/−: 1.2 fold
  MX1 Fold Change: IFNβ−/−: 9.3 fold
  MX2 Fold Change: IFNβ−/−: 1.1 fold
  NMI Fold Change: IFNβ−/−: 1.6 fold
  NP Fold Change: IFNβ−/−: 1.7 fold
  NT5C3 Fold Change: IFNβ−/−: 1.8 fold
  OAS1B Fold Change: IFNβ−/−: 2.1 fold
  OASL Fold Change: IFNβ−/−: 19.7 fold
  P4HA1 Fold Change: IFNβ−/−: 3.4 fold
  P8 Fold Change: IFNβ−/−: 1.3 fold
  PARP9 Fold Change: IFNβ−/−: 1.4 fold
  PELI1 Fold Change: IFNβ−/−: 4.3 fold
  PGF Fold Change: IFNβ−/−: 20.2 fold
  PLAU Fold Change: IFNβ−/−: 2.3 fold
  PPP1R15A Fold Change: IFNβ−/−: 1.6 fold
  PTX3 Fold Change: IFNβ−/−: 1.3 fold
  PVRL2 Fold Change: IFNβ−/−: 3.1 fold
  PVRL4 Fold Change: IFNβ−/−: 4.3 fold
  REL Fold Change: IFNβ−/−: 1.1 fold
  RGC32 Fold Change: IFNβ−/−: 3.0 fold
  RIPK2 Fold Change: IFNβ−/−: 1.3 fold
  RSAD2 Fold Change: IFNβ−/−: 7.8 fold
  SAP30 Fold Change: IFNβ−/−: 1.6 fold
  SAV1 Fold Change: IFNβ−/−: 2.6 fold
  SDC4 Fold Change: IFNβ−/−: 3.3 fold
  SECTM1 Fold Change: IFNβ−/−: 1.2 fold
  SLC7A2 Fold Change: IFNβ−/−: 1.8 fold
  SOAT1 Fold Change: IFNβ−/−: 1.9 fold
  SOCS1 Fold Change: IFNβ−/−: 3.4 fold
  STAT2 Fold Change: IFNβ−/−: 1.7 fold
  TGTP Fold Change: IFNβ−/−: 1.6 fold
  TLK2 Fold Change: IFNβ−/−: 1.4 fold
  TLR3 Fold Change: IFNβ−/−: 1.3 fold
  TMOD3 Fold Change: IFNβ−/−: 2.3 fold
  TNF Fold Change: IFNβ−/−: 1.4 fold
  TNFRSF11B Fold Change: IFNβ−/−: 100.0 fold
  TNFSF9 Fold Change: IFNβ−/−: 1.7 fold
  TOR1AIP1 Fold Change: IFNβ−/−: 1.3 fold
  TPST1 Fold Change: IFNβ−/−: 6.1 fold
  TREX1 Fold Change: IFNβ−/−: 5.2 fold
  TRIM21 Fold Change: IFNβ−/−: 2.6 fold
  TRIM25 Fold Change: IFNβ−/−: 2.3 fold
  TRIM34 Fold Change: IFNβ−/−: 1.9 fold
  USP18 Fold Change: IFNβ−/−: 1.0 fold
  VCAM1 Fold Change: IFNβ−/−: 1.6 fold
  ZBP1 Fold Change: IFNβ−/−: 4.2 fold
  ZNF313 Fold Change: IFNβ−/−: 1.5 fold
TBK1−/− MEFs
  RANTES mRNA in TBK1-deficient MEFs: fail to express
  TNF-α mRNA in TBK1-deficient MEFs: fail to express
Influenza/A/Wuhan [4]
  IC50 indirect antiviral activity: 2.0 µg/mL (≈ 7.08 µM)
Peritoneal macrophages; 2 h mRNA, 24 h protein
  induced IFN-β mRNA and protein in MyD88−/− macrophages: not significantly altered
  induced TNF-α mRNA and protein in MyD88−/− macrophages: not significantly altered
Peritoneal macrophages; 24 h pretreatment, restimulated 1 h
  response to restimulation with either LPS or DMXAA after pretreatment: induces a state of refractoriness
Peritoneal macrophages; TLR4−/− peritoneal macrophages, 2 h
  TNF-α mRNA in the absence of TLR4: induces TNF-α to wild-type levels
Peritoneal macrophages; murine macrophages
  induction of IFN-β protein and IP-10 mRNA compared with LPS: much more potent inducer
Peritoneal macrophages; peritoneal exudate macrophages, 2 h, real-time PCR
  IFN-β steady-state mRNA relative to LPS: ~10 fold

Reference: patent publication US8957108B2, “Use of 5,6-dimethylxanthenone-4-acetic acid as an antiviral agent” (University of Maryland, Baltimore, priority 2006, dated 2015)
